Measurements taken from article PMC2853803 (ACS chemical biology, 2009).
Entries after “also recorded” stand apart in the source; their conditions may differ. Read-outs that look alike come from different tables or passages of the source. Marks after values point to notes of the source that are not given here.

Tests used:
ABCG2 [1] = molecular target: T1, ABCG2 (Homo sapiens, UniProt Q9UNQ0); type: cell-based; settings: 10 µM compound; for activity in the BODIPY-prazosin flow cytometry assay: result in words
T1 sequence (Q9UNQ0 1-655): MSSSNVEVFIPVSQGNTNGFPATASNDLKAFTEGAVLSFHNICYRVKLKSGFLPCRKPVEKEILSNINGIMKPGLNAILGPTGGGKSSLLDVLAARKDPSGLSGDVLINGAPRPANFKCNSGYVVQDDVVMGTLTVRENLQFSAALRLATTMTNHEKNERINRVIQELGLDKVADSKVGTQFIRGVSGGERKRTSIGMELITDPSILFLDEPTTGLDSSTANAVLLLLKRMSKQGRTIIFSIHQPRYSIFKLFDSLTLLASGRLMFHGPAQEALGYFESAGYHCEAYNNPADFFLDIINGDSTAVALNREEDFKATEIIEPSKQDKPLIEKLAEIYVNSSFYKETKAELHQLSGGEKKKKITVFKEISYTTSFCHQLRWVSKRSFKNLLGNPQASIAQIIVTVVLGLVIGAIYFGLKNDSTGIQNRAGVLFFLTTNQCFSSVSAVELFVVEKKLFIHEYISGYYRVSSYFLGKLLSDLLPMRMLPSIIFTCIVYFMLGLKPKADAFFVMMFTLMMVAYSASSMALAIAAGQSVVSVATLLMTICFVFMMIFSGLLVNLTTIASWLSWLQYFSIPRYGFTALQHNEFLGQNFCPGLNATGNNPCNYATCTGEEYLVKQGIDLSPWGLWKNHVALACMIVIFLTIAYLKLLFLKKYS

ABCG2 [2] = molecular target: T1, ABCG2; assay: Screening assay: pheophorbide a; type: cell-based
[3] = tested on: parental NCI-H460 (ABCG2-) and NCI-H460/MX20 (ABCG2+) cells; assay: Cytotoxicity of botryllamides alone, 7 d; type: cell-based, human; settings: 100 µM botryllamide, result in words
MRP1 = MRP1 (Homo sapiens, UniProt P33527); type: cell-based; settings: 50 µM botryllamide; for effect on MRP1: result in words; for fold increase in cellular calcein fluorescence (MRP1-mediated transport): MK-571 50 µM, MRP1-expressing HEK293
Sequence of MRP1 (P33527 whole entry): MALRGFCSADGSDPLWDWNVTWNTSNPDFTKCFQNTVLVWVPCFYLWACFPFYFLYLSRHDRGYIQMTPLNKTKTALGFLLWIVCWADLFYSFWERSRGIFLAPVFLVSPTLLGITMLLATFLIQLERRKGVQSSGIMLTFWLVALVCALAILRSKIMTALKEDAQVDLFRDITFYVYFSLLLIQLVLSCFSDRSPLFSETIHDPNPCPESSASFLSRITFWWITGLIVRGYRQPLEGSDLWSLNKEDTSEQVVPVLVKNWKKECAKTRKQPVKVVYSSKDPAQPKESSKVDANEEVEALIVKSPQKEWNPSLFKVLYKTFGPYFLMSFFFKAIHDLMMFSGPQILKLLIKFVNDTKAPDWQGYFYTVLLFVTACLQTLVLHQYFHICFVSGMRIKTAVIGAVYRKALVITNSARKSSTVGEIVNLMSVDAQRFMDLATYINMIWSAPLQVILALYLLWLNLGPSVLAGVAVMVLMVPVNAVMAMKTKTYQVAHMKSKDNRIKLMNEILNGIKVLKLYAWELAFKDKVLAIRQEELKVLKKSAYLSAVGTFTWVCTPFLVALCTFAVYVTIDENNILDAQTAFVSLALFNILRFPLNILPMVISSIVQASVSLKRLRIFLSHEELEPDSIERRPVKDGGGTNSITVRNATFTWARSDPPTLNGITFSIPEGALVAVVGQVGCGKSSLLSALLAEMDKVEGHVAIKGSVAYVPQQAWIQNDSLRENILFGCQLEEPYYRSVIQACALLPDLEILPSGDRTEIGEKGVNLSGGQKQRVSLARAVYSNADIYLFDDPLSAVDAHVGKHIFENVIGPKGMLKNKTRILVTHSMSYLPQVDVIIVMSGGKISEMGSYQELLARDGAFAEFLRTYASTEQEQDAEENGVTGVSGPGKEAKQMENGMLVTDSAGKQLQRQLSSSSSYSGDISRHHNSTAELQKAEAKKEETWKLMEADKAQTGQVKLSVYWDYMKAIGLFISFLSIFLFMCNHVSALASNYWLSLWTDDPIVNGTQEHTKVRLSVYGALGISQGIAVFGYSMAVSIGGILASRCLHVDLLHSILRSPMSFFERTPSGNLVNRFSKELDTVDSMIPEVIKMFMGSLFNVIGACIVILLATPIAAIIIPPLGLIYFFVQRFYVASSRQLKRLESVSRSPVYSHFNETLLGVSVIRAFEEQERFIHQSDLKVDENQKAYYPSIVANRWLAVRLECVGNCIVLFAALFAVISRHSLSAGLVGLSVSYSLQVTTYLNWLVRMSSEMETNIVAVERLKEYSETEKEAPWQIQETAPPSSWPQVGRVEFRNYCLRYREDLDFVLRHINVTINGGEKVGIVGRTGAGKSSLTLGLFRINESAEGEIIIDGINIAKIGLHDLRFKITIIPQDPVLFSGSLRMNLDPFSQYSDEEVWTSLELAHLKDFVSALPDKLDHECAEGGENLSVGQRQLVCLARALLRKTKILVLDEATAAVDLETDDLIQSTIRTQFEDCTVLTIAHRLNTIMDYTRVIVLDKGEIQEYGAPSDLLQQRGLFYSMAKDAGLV

P-gp = P-gp (Homo sapiens, UniProt P08183); settings: 50 µM botryllamide; for effect on P-gp: result in words; for fold change in rhodamine fluorescence (P-gp-mediated transport): valspodar 3 µg/ml, P-gp-expressing HEK293
Sequence of P-gp (P08183 whole entry): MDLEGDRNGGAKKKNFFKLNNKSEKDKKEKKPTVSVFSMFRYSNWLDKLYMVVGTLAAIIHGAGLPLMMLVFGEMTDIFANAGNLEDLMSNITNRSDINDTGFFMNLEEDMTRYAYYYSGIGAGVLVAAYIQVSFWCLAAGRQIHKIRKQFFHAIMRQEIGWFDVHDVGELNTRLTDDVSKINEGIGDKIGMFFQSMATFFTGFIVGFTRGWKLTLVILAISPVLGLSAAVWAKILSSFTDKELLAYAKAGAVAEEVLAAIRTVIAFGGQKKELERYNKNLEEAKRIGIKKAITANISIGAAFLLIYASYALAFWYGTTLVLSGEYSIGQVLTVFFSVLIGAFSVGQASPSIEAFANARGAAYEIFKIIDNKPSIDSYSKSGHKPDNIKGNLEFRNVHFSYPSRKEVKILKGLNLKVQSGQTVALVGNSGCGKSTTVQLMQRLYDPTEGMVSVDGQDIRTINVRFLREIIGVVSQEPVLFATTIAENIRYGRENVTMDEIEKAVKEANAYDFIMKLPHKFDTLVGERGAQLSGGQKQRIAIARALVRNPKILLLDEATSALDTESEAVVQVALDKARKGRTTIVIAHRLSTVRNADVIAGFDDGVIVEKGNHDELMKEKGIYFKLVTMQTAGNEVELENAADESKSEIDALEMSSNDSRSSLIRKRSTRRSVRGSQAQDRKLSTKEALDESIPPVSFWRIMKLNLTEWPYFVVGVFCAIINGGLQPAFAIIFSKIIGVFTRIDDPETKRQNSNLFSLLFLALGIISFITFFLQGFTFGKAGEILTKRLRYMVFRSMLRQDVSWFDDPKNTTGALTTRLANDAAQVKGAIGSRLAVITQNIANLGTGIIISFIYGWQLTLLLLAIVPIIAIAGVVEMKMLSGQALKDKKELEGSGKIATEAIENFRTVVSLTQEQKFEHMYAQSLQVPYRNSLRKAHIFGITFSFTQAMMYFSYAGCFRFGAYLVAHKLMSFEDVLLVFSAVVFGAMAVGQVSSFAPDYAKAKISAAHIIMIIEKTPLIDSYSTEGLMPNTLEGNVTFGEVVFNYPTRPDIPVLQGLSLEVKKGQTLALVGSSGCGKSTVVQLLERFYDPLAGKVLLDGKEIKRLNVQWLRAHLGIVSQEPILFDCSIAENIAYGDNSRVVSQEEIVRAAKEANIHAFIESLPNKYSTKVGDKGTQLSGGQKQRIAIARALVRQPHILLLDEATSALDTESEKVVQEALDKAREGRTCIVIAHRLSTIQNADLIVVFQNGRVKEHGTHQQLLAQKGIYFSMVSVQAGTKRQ

[4] = tested on: NCI-H460/MX20 (ABCG2-overexpressing) cells
ABCG2 [5] = molecular target: T1, ABCG2; settings: 20 µM compound, MCF-7 FLV1000 membranes
[6] = Light-induced isomerization on exposure to sunlight; type: physicochemical; settings: result in words
NCI-H460 parental cells = assay: Mitoxantrone cytotoxicity in parental cells; type: cell-based, human; settings: 10 µM mitoxantrone, vs vehicle (data not shown)

With `[C-]#[N+]c1c(O)cccc1/C=C(/O)C(=O)N/C=C/c1ccc(O)cc1` [Botryllamide H, botryllamide H] as the molecule, how does the “activity in the BODIPY-prazosin flow cytometry assay” value (ABCG2 [1]) read?
Its value is “inactive”.

And the “activity in the screening assay (PhA)” value (ABCG2 [2])?
The value was “inactive”.

With botryllamide B as the molecule, how does the IC50 (ABCG2 [2]) read?
The IC50 was 11.2 ± 0.6 µM.

And the cytotoxicity [3]?
The cytotoxicity was “significant cytotoxicity”.

For `CO/C(=C\c1ccc(O)cc1)C(=O)N/C=C/c1ccc(OC)cc1` [Botryllamide E, botryllamide E], which “effect on MRP1” value (MRP1) is on record?
The value was “minimal effects”.

And the “effect on P-gp” value (P-gp)?
Its value is “minimal effects; also recorded: inactive”.

Which IC50 (ABCG2 [2]) does the source give for `CO/C(=C\c1ccc(O)cc1)C(=O)N/C=C/c1ccc(OC)c(Br)c1` [Botryllamide D, botryllamide D] here?
The IC50 was 16.4 ± 2.3 µM.

And the cytotoxicity [3]?
Its cytotoxicity is “significant cytotoxicity”.

What about the “effect on P-gp” value (P-gp) of the same molecule?
Its value is “inactive”.

For `CO/C(=C\c1ccc(O)cc1)C(=O)N/C=C/c1ccc(OC)c(Br)c1` [Botryllamide C, botryllamide C], which “activity in the BODIPY-prazosin flow cytometry assay” value (ABCG2 [1]) is on record?
Its value is “active”.

And the “activity in the screening assay (PhA)” value (ABCG2 [2]; result in words)?
The value was “inactive”.

And the “fold increase in cellular calcein fluorescence (MRP1-mediated transport)” value (MRP1)?
Its value is 3.7 fold.

What about the “activity in the mitoxantrone resistance reversal assay” value ([4]; 10 µM compound + 10 µM mitoxantrone, result in words) of the same molecule?
The value was “not particularly active”.

What about the “fold change in rhodamine fluorescence (P-gp-mediated transport)” value (P-gp) of the same molecule?
The value was 46.4 fold.

Which results are given for `CO/C(=C\c1ccc(O)cc1)C(=O)N/C=C/c1cc(Br)c(OC)c(Br)c1` [Botryllamide A, botryllamide A]?
fold increase in cellular calcein fluorescence (MRP1-mediated transport) (MRP1): 4.5 fold; fold change in rhodamine fluorescence (P-gp-mediated transport) (P-gp): 17.6 fold

What does the source list for `COc1ccc2c3c([nH]c2c1)[C@H](C=C(C)C)N1C(=O)[C@@H]2CCCN2C(=O)[C@@H]1C3` [FTC, fumitremorgin C, reference compound]?
fold increase in intracellular BODIPY-prazosin fluorescence (ABCG2 [1]; ABCG2-transfected HEK293, vs absence of inhibitor): 3.4 fold; cells surviving in the presence of mitoxantrone ([4]; 10 µM compound + 10 µM mitoxantrone, 3 days, vs vehicle (DMSO) control): 57%; [125I]IAAP binding (incorporation into ABCG2) (ABCG2 [5]): 14 % of control

With botryllamide I as the molecule, how does the IC50 (ABCG2 [2]) read?
The IC50 was 41.4 ± 6.1 µM.

And the stability to sunlight [6]?
The stability to sunlight was “irreversibly converted to botryllamide E (5) by exposure to sunlight”.

With `O=C1c2c(O)ccc(O)c2C(=O)c2c(NCCNCCO)ccc(NCCNCCO)c21` [mitoxantrone, reference compound] as the molecule, how does the “cells surviving with mitoxantrone alone” value (NCI-H460 parental cells) read?
Its value is “approximately 50%”.

What about the “cells alive with mitoxantrone alone” value ([4]; 10 µM mitoxantrone, 3 days, NCI-H460 MX20, vs vehicle (DMSO)) of the same molecule?
The value was “approximately 88%”.

For `C/C=C/C[C@@H](C)C(=O)[C@H]1C(=O)N[C@@H](C(C)C)C(=O)N(C)CC(=O)N(C)[C@@H](CC(C)C)C(=O)N[C@@H](C(C)C)C(=O)N(C)[C@@H](CC(C)C)C(=O)N[C@@H](C)C(=O)N[C@H](C)C(=O)N(C)[C@@H](CC(C)C)C(=O)N(C)[C@@H](CC(C)C)C(=O)N(C)[C@@H](C(C)C)C(=O)N1C` [valspodar, reference compound], which “fold change in rhodamine fluorescence (P-gp-mediated transport)” value (P-gp) is on record?
The value was 29.7 fold.

For `CO/C(=C\c1ccc(O)cc1)C(=O)N/C=C/c1ccc(O)cc1` [Botryllamide F, botryllamide F], which cytotoxicity [3] is on record?
Its cytotoxicity is “significant cytotoxicity”.

With `CO/C(=C\c1ccc(O)cc1)C(=O)N/C=C/c1cc(Br)c(O)c(Br)c1` [Botryllamide G, botryllamide G] as the molecule, how does the “max activity (% FTC)” value (ABCG2 [2]; human) read?
Its value is 123.7 ± 1.7 ^d % FTC.

And the “effect on MRP1” value (MRP1)?
The value was “minimal effects”.

What about the “effect on P-gp” value (P-gp) of the same molecule?
The value was “minimal effects; also recorded: inactive”.
